{
  "source": "paper PMC9332470",
  "about": "“Production and Selection of Antibody–Antigen Pairs for the Development of Immunoenzyme Assay and Lateral Flow Immunoassay Methods for Carbofuran and Its Analogues” (Biosensors, 2022)",
  "key": {"mAb 12D6": {"tested_on": "mAb 12D6", "assay": "ELISA reactivity of hybridoma supernatant, cell line 12D6", "format": "binding, BALB/c mice", "details": "cell line 12D6 supernatant, 50 ng/mL pesticide", "method": "(§1) The desired antibodies with the highest affinity were screened by icELISA with carbofuran as a competitive compound, and hybridoma cells were cloned by the limited dilution method. Then, the selected hybridoma cells were injected into mice for ascites production. Finally, the mAbs were purified by (NH4)2SO4 with saturation of 50% and further purified by an SPA column.\n(§2) Microplates were coated with coating antigens. Different concentrations of the standard (50 µL) and the mAb (50 µL) were added to each well, and the plates were incubated for 20 min at 37 °C. The plates were washed with PBS (0.01 M, containing 0.05% (v/v) Triton X-100), 100 μL of goat anti-mouse IgG-HRP conjugate solution was added to each well, and the plates were incubated for 20 min at 37 °C. After the plates were washed with PBS (0.01 M, containing 0.05% Triton X-100, v/v), 100 µL of TMB single-component substrate solution was added to each well, followed by incubation at 37 °C for 10 min. Finally, the reaction was terminated, and the absorbance at 450 nm was measured by a microplate reader.\n(§3) The inhibition ratio (I%) was calculated as (B0-B)/B0 × 100%. IC50 is the concentration of the carbofuran at an I% of 50%, and the limit of detection (LOD) was determined as the concentration showing 10% of inhibition.\n(§4) Then, the reactivity of the supernatant of the six cell lines to 50 ng/mL carbofuran, benfuracarb and carbosulfan was assessed by ELISA, and the results are shown in Table 1. […] Because 13C8 had the highest reactivity with carbofuran, benfuracarb and carbosulfan among the six cell lines, it was injected into mice for ascites production, and the mAbs were purified by a protein A column for further experiments."}, "[1]": {"tested_on": "mAb with the immunogen 3-succinyl-carbofuran-KLH", "details": "cited from earlier work"}, "mAb 12H5": {"tested_on": "mAb 12H5", "assay": "ELISA reactivity of hybridoma supernatant, cell line 12H5", "format": "binding, BALB/c mice", "details": "cell line 12H5 supernatant, 50 ng/mL pesticide", "method": "as §1, §2, §3, §4"}, "[2]": {"tested_on": "specific antibody against carbofuran", "details": "cited from earlier work"}, "[3]": {"tested_on": "broad-specificity mAb with the immunogen BFNB-BSA", "details": "cited from earlier work"}, "mAb 6D6": {"tested_on": "mAb 6D6", "assay": "ELISA reactivity of hybridoma supernatant, cell line 6D6", "format": "binding, BALB/c mice", "details": "cell line 6D6 supernatant, 50 ng/mL pesticide", "method": "as §1, §2, §3, §4"}, "mAb 7F9": {"tested_on": "mAb 7F9", "assay": "ELISA reactivity of hybridoma supernatant, cell line 7F9", "format": "binding, BALB/c mice", "details": "cell line 7F9 supernatant, 50 ng/mL pesticide", "method": "as §1, §2, §3, §4"}, "mAb 13C8 [4]": {"tested_on": "mAb 13C8", "assay": "colloidal gold-based LFIA with mAb 13C8", "format": "binding, BALB/c mice", "method": "Ten milliliters of colloidal gold solution was adjusted to pH 8.0 with K2CO3 (0.1 M) at room temperature, and then 60 μg of the antibody was added. After mixing for 30 min at room temperature, 200 μL of 20% (w/v) BSA was added to block the free colloidal gold for 20 min at room temperature. Then, the mixture was centrifuged at 15,777× g for 30 min at 4 °C. Finally, the precipitate was resuspended in 2000 μL of PBS (0.005 M at pH 8.2, containing 10% BSA, 2% glucose, 0.5% alanine, 5% PEG2000 and 0.1% NaN3, w/v) and stored at 4 °C.\nAn immunochromatographic test strip consisted of a sample pad, a conjugate pad, a nitrocellulose (NC) membrane and an absorbent pad. The mAb–colloidal gold conjugates (700 μL) were sprayed onto the conjugate pad (6 mm × 300 mm) and then dried under vacuum for 20 h at room temperature. DDB-OVA (50 μg/mL) or MDA-OVA (30 μg/mL) and goat anti-mouse IgG antibodies were dispensed on the NC membrane at a rate of 1 μL/cm as the test line (T line) and control line (C line), respectively. The NC membrane was then dried at 37 °C for 3 h. The sample pads, conjugate pads, NC membranes and absorbent pads were attached to the PVC plastic support, and then the assembled plate was cut to obtain 4 mm test strips and placed in a rigid plastic cassette.\nWe also dispensed DDB-OVA (50 μg/mL) and MDA-OVA (30 μg/mL) onto the NC membrane and labeled antibody 13C8 with colloidal gold to prepare colloidal gold LFIA test strips."}, "mAb 13C8 [5]": {"tested_on": "mAb 13C8", "assay": "ELISA reactivity of hybridoma supernatant, cell line 13C8", "format": "binding, BALB/c mice", "details": "cell line 13C8 supernatant, 50 ng/mL pesticide", "method": "as §1, §2, §3, §4"}, "[6]": {"tested_on": "mAb with the immunogen BFNH-lactoferrin", "details": "heterologous coating antigen BFOA-BSA; cited from earlier work"}},
  "data": [
    {"compound": "CNC(=O)Oc1cccc2c1OC(C)(C)C2", "note": "[carbofuran]", "values": [
      {"measurement": "Reactivity of mAb (I%)", "setting": "mAb 12D6", "value": 84, "unit": "%"},
      {"measurement": "CR(%) (ic-ELISA)", "setting": "[1]", "value": 100.0, "unit": "%"},
      {"measurement": "IC50 (ic-ELISA)", "setting": "[1]", "value": "0.76 ± 0.07", "unit": "ng/mL"},
      {"measurement": "Reactivity of mAb (I%)", "setting": "mAb 12H5", "value": 78, "unit": "%"},
      {"measurement": "IC50 (direct competitive ELISA)", "setting": "[2]", "value": 1.3, "unit": "ng/mL"},
      {"measurement": "CR(%) (ic-ELISA)", "setting": "[3]", "value": 100.0, "unit": "%"},
      {"measurement": "IC50 (ic-ELISA)", "setting": "[3]", "value": 8.97, "unit": "ng/mL"},
      {"measurement": "Reactivity of mAb (I%)", "setting": "mAb 6D6", "value": 86, "unit": "%"},
      {"measurement": "Reactivity of mAb (I%)", "setting": "mAb 7F9", "value": 76, "unit": "%"},
      {"measurement": "cut-off (colloidal gold LFIA)", "setting": "mAb 13C8 [4]; heterologous coating antigen MDA-OVA (30 μg/mL)", "value": 3, "unit": "ng/mL"},
      {"measurement": "change of T line versus 0 ng/mL", "setting": "mAb 13C8 [4]; heterologous coating antigen MDA-OVA, 1 ng/mL carbofuran", "value": "significantly lighter"},
      {"measurement": "change of T line versus 0 ng/mL", "setting": "mAb 13C8 [4]; homologous coating antigen DDB-OVA, 1000 ng/mL carbofuran", "value": "almost no change"},
      {"measurement": "Reactivity of mAb (I%)", "setting": "mAb 13C8 [5]", "value": 95, "unit": "%"},
      {"measurement": "IC50 (ELISA)", "setting": "[6]", "value": 1.4, "unit": "ng/mL"}
    ]}
  ]
}
